Source: article PMC8424629, “Chemical “Butterfly Effect” Explaining the Coordination Chemistry and Antimicrobial Properties of Clavanin Complexes” (Inorganic Chemistry, 2021)
Where two headings read alike, the source gives them in different places. Where no end group is shown, it is not given here.

What was measured:
[1] = test system: Staphylococcus spp. (for S. aureus); parameters: method as in earlier work; conditions: EUCAST/2021/01/01, ref 22 (SI), cited from earlier work; for MIC breakpoints R>: resistant breakpoint; for MIC breakpoints S≤: susceptible breakpoint
[2] = test system: Enterococcus spp. (for E. faecalis); parameters: method as in earlier work; conditions: EUCAST/2021/01/01, ref 22 (SI), cited from earlier work; for MIC breakpoints R>: resistant breakpoint; for MIC breakpoints S≤: susceptible breakpoint
[3] = test system: Enterobacterales (for E. coli); parameters: method as in earlier work; conditions: EUCAST/2021/01/01, ref 22 (SI), cited from earlier work; for MIC breakpoints R>: resistant breakpoint; for MIC breakpoints S≤: susceptible breakpoint
[4] = type: binding; conditions: for log β ZnH2L / log β ZnH3L / log β ZnHL / log β ZnL / log β ZnH4L: Zn(II):L 1:1, 0.5 mM
Method: (§1) All peptides ([…]-COOH, […]-COOH, […]
(§2) were purchased from KareBay Biochem (USA) (certified purity: 98 %) and were used as received.
(§3) The carbonate-free stock solutions of 0.1 M NaOH were purchased from Sigma-Aldrich and then potentiometrically standardized with the primary standard potassium hydrogen phthalate (99.9 % purity). […]
(§4) Stability constants for proton, Zn(II) and Cu(II) complexes were calculated from pH -metric titration curves carried out over the pH range 2-11 at T = 298 K in water solution of 4 mM HClO 4 and ionic strength 40 mM (SDS), using a total volume of 3 ml. The potentiometric titrations were performed using a Metrohm Titrando 905 titrator and a Mettler Toledo InLab Micro comb ined pH electrode. The thermostabilized glass -cell was equipped with a magnetic stirring system, a microburette delivery tube and an inlet –outlet tube for argon.
(§5) Solutions were titrated with 0.1 M carbonate-free NaOH. The electrodes were calibrated daily f or hydrogen ion concentration by titrating HClO 4 with NaOH under the same experimental conditions as above. The purities and the exact concentrations of the ligand solutions were determined by the Gran method. 1 The ligand concentration was 0.5 mM. The Zn(II) and Cu(II) to ligand ratio was 1 : 1.
(§6) The standard potential and the slope of the electrode couple were computed by means of Glee 2 program. The HYPERQUAD 20063 program was used for the stability constant calculations. The standard deviations were computed by HYPERQUAD 2006 and refer to random errors only. The constants for the hydrolytic Zn(II ) species

[5] = test system: Candida albicans ATCC 10231; conditions: ATCC 10231, 24 h
[6] = type: physicochemical; conditions: for log β H2L / log β H3L / log β H4L / log β H5L / log β H6L / log β HL: potentiometry pH 2-11, 298 K, 4 mM HClO4, I = 40 mM SDS, ligand 0.5 mM, SD in parentheses
Method: as §1, §2, §3, §4, §5, §6

E. coli = conditions: literature describes C-amidated clavanins, cited from earlier work
Description: During the over 20-year study on clavanins (mainly clavanin A), various modes of action were proposed.[15],[18],[19] […] The second is observed at acidic pH (5.5) when clavanin A binds to DNA and disrupts DNA synthesis, similarly to indolicidin.[20] The third mechanism, which also occurs at pH 5.5, is assigned not to the “single” clavanin A but to its Zn(II) complex, which cleav ...

[7] = test system: Enterococcus faecalis ATCC 29212; conditions: ATCC 29212, 24 h
[8] = potentiometry, 298 K, I = 40 mM SDS, Cu(II):L 1:1, 0.5 mM, SD in parentheses
[9] = potentiometry, 298 K, I = 40 mM SDS, SD in parentheses

## NCC[C@H](O)C(=O)N[C@@H]1C[C@H](N)[C@@H](O[C@H]2O[C@H](CN)[C@@H](O)[C@H](O)[C@H]2O)[C@H](O)[C@H]1O[C@H]1O[C@H](CO)[C@@H](O)[C@H](N)[C@H]1O [Amikacin]
[1]
  MIC breakpoints R>: > 8 µg/mL
  MIC breakpoints S≤: ≤ 8 µg/mL

## CC1(C)S[C@@H]2[C@H](NC(=O)[C@H](N)c3ccc(O)cc3)C(=O)N2[C@H]1C(=O)O [Amoxicillin]
[2]
  MIC breakpoints R>: > 8 µg/mL
  MIC breakpoints S≤: ≤ 4 µg/mL

## CC1(C)S[C@@H]2[C@H](NC(=O)[C@H](N)c3ccccc3)C(=O)N2[C@H]1C(=O)O [Ampicillin]
[2]
  MIC breakpoints R>: > 8 µg/mL
  MIC breakpoints S≤: ≤ 4 µg/mL

## CC1=C(C(=O)O)N2C(=O)[C@@H](NC(=O)[C@H](N)c3ccc(O)cc3)[C@H]2SC1 [Cefadroxil]
[3]
  MIC breakpoints R>: > 16 µg/mL
  MIC breakpoints S≤: ≤ 16 µg/mL

## CC1=C(C(=O)O)N2C(=O)[C@@H](NC(=O)[C@H](N)c3ccccc3)[C@H]2SC1 [Cefalexin]
[3]
  MIC breakpoints R>: > 16 µg/mL
  MIC breakpoints S≤: ≤ 16 µg/mL

## O=C(N[C@H](CO)[C@H](O)c1ccc([N+](=O)[O-])cc1)C(Cl)Cl [Chloramphenicol]
[1]
  MIC breakpoints R>: > 8 µg/mL
  MIC breakpoints S≤: ≤ 8 µg/mL

## C[C@@H]1O[C@@H]1P(=O)(O)O [Fosfomycin iv, Fosfomycin]
[3]
  MIC breakpoints R>: > 32 µg/mL
  MIC breakpoints S≤: ≤ 32 µg/mL
[1]
  MIC breakpoints R>: > 32 µg/mL
  MIC breakpoints S≤: ≤ 32 µg/mL

## O=C1CN(/N=C/c2ccc([N+](=O)[O-])o2)C(=O)N1 [Nitrofurantoin]
[3]
  MIC breakpoints R>: > 64 µg/mL
  MIC breakpoints S≤: ≤ 64 µg/mL
[2]
  MIC breakpoints R>: > 64 µg/mL
  MIC breakpoints S≤: ≤ 64 µg/mL
[1]
  MIC breakpoints R>: > 64 µg/mL
  MIC breakpoints S≤: ≤ 64 µg/mL

## O=[N+]([O-])c1ccc(O)c2ncccc12 [Nitroxoline]
[3]
  MIC breakpoints R>: > 16 µg/mL
  MIC breakpoints S≤: ≤ 16 µg/mL

## CCN1CCN(C(=O)N[C@@H](C(=O)N[C@@H]2C(=O)N3[C@@H]2SC(C)(C)[C@@H]3C(=O)O)c2ccccc2)C(=O)C1=O [Piperacillin]
[3]
  MIC breakpoints R>: > 8 µg/mL
  MIC breakpoints S≤: ≤ 8 µg/mL

## CC1(C)S[C@@H]2[C@H](NC(=O)[C@H](C(=O)O)c3ccsc3)C(=O)N2[C@H]1C(=O)O [Ticarcillin]
[3]
  MIC breakpoints R>: > 16 µg/mL
  MIC breakpoints S≤: ≤ 8 µg/mL

## H-LFKLLGKIIHHVGNFVHGFSHVF-OH [Clavanin E]
[4]
  pKa, line CuH2L: 6.90
  pKa, line CuH3L: 5.96
  pKa, line CuH4L: 5.16
  pKa, line CuH-1L: 8.78
  pKa, line CuH-2L: 10.05
  pKa, line CuH-3L: 10.37
  pKa, line CuHL: 7.72
  pKa, line CuL: 8.81
  pKa, line ZnH2L: 7.18
  pKa, line ZnHL: 8.62
  pKa, line ZnL: 9.77
[4]; [8]
  log β CuH2L: 29.52 (3)
  log β CuH3L: 36.42 (3)
  log β CuH4L: 42.38 (2)
  log β CuH5L: 47.54 (3)
  log β CuH-1L: 4.21 (4)
  log β CuH-2L: -5.84 (4)
  log β CuH-3L: -16.21 (5)
  log β CuHL: 21.80 (3)
  log β CuL: 12.99 (4)
[4]; [9]
  log β ZnH2L: 25.12 (5)
  log β ZnH3L: 32.30 (11)
  log β ZnHL: 16.50 (6)
  log β ZnL: 6.73
[5]
  MIC: 32 µg/mL
[6]
  pKa, species H2L: 9.19
  pKa, species H3L: 8.29
  pKa, species H4L: 7.82
  pKa, species H5L: 7.30
  pKa, species H6L: 5.55
  pKa, species HL: 10.77
  log β H2L: 19.96 (3)
  log β H3L: 28.25 (3)
  log β H4L: 36.07 (3)
  log β H5L: 43.37 (3)
  log β H6L: 48.92 (4)
  log β HL: 10.77 (2)

## H-VFQFLGKIIHHVGNFVHGFSHVF-OH [Clavanin A]
[4]
  pKa, line CuH2L: 6.82
  pKa, line CuH3L: 6.01
  pKa, line CuH-1L: 8.82
  pKa, line CuH-2L: 9.76
  pKa, line CuH-3L: 10.16
  pKa, line CuHL: 7.56
  pKa, line CuL: 8.36
  pKa, line ZnH2L: 7.15
  pKa, line ZnH3L: 6.59
  pKa, line ZnHL: 8.53
  pKa, line ZnL: 9.36
[4]; [8]
  log β CuH2L: 27.53 (3)
  log β CuH3L: 34.35 (2)
  log β CuH4L: 40.36 (2)
  log β CuH-1L: 2.79 (3)
  log β CuH-2L: -6.97 (3)
  log β CuH-3L: -17.13 (3)
  log β CuHL: 19.97 (3)
  log β CuL: 11.61 (3)
[4]; [9]
  log β ZnH2L: 23.99 (2)
  log β ZnH3L: 31.14 (3)
  log β ZnH4L: 37.74 (12)
  log β ZnHL: 15.46 (2)
  log β ZnL: 6.10 (7)
[5]
  MIC: 128 µg/mL
E. coli; pH 5.5, with addition of Zn(II) ions
  minimum inhibitory concentration (MIC): 4 µM
E. coli; pH 5.5, without Zn(II)
  minimum inhibitory concentration (MIC): 64 µM
[6]
  pKa, species H2L: 8.88
  pKa, species H3L: 8.09
  pKa, species H4L: 7.63
  pKa, species H5L: 6.92
  pKa, species H6L: 5.32
  pKa, species HL: 10.18
  log β H2L: 19.06 (6)
  log β H3L: 27.15 (8)
  log β H4L: 34.78 (7)
  log β H5L: 41.7 (8)
  log β H6L: 47.02 (10)
  log β HL: 10.18 (6)
[7]
  MIC: 256 µg/mL

## H-VFQFLGRIIHHVGNFVHGFSHVF-OH [Clavanin B]
[4]; [8]
  log β CuH2L: 28.72 (3)
  log β CuH3L: 35.57 (2)
  log β CuH4L: 41.57 (3)
  log β CuH-1L: 2.96 (3)
  log β CuH-2L: -7.17 (3)
  log β CuH-3L: -18.46 (4)
  log β CuHL: 21.00 (3)
  log β CuL: 12.37 (3)
[4]; [9]
  log β ZnH2L: 25.24 (2)
  log β ZnH3L: 32.61 (2)
  log β ZnH4L: 39.23 (7)
  log β ZnHL: 16.85 (1)
  log β ZnL: 6.53 (7)
[6]
  log β H2L: 20.21 (2)
  log β H3L: 28.47 (2)
  log β H4L: 36.26 (2)
  log β H5L: 43.35 (2)
  log β H6L: 48.47 (2)
  log β HL: 11.17 (1)

## VFQFLGRIIHHVGNFVHGFSHVF [Clavanin B]
[4]
  pKa, line CuH2L: 6.86
  pKa, line CuH3L: 5.99
  pKa, line CuH-1L: 9.40
  pKa, line CuH-2L: 10.14
  pKa, line CuH-3L: 11.28
  pKa, line CuHL: 7.71
  pKa, line CuL: 8.64
  pKa, line ZnH2L: 7.37
  pKa, line ZnH3L: 6.62
  pKa, line ZnHL: 8.39
  pKa, line ZnL: 10.32
[6]
  pKa, species H2L: 9.04
  pKa, species H3L: 8.26
  pKa, species H4L: 7.79
  pKa, species H5L: 7.09
  pKa, species H6L: 5.12
  pKa, species HL: 11.17
